Data on four compounds can be found in ChEMBL document CHEMBL1156330, “Discovery of a spiroindane based compound as a potent, selective, orally bioavailable melanocortin subtype-4 receptor agonist” (Bioorg Med Chem Lett, 2010).

pEC50, pIC50: −log10 of the molar value.

The target of data set [1] is T1, Melanocortin receptor 4 (Homo sapiens, UniProt P32245). Kind of data set: Displacement of [125I]NDP-alpha-MSH from human MC4R expressed in CHO cells. Type of data set: cell-based.
Data set [2] addresses T2, Melanocyte-stimulating hormone receptor (Homo sapiens, UniProt Q01726). Kind of data set: Agonist activity at human MC1R expressed in CHO cells assessed as stimulation of intracellular cAMP accumulation at 10 uM relative to alpha-MSH. Type of data set: functional, cell-based. A general note: Changes in cAMP serve as a functional read-out for many G protein-coupled receptors.
Target sequence in this assay (Q01726 whole entry, looked up): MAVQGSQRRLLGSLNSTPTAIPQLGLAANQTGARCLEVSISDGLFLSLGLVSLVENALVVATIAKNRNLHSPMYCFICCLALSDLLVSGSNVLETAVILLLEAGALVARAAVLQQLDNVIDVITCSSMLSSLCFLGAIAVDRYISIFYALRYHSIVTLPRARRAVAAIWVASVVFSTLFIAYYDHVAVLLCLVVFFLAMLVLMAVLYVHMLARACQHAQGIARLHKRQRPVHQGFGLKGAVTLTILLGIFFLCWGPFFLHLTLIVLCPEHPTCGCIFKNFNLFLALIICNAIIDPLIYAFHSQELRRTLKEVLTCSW

Data set [3] deals with T1, Melanocortin receptor 4. Kind of data set: Agonist activity at human MC4R expressed in CHO cells assessed as stimulation of intracellular cAMP accumulation. Type of data set: functional, cell-based.
Data set [4] deals with T1, Melanocortin receptor 4. Kind of data set: Agonist activity at human MC4R expressed in CHO cells assessed as stimulation of intracellular cAMP accumulation at 10 uM relative to alpha-MSH. Type of data set: functional, cell-based.
For data set [5], the target named is T2, Melanocyte-stimulating hormone receptor. Kind of data set: Agonist activity at human MC1R expressed in CHO cells assessed as stimulation of intracellular cAMP accumulation. Format: functional, cell-based.
Target sequence in this assay (Q01726 whole entry): as the sequence (Q01726 whole entry, looked up) above
Data set [6] can be described thus: Half life in rhesus monkey at 0.5 mg/kg, iv and 2 mg/kg, po. Type of data set: ADME, organism-based, Macaca mulatta. Conditions: in vivo.
Data set [7] has as its system Rattus norvegicus. Kind of data set: Erectogenic activity in rat assessed as spontaneous erections at 1 ug/kg, iv for 30 mins. Type of data set: functional.
A short description of data set [8]: Clearance in Beagle dog at 0.5 mg/kg, iv and 1.0 mg/kg, po. Type of data set: ADME, organism-based, Canis lupus familiaris. Conditions: in vivo.
The subject of data set [9] is Rattus norvegicus. Briefly: Erectogenic activity in rat assessed as spontaneous erections at 0.001 mg/kg, iv for 30 mins. Type of data set: functional.
The target of data set [10] is T3, Melanocortin receptor 3 (Homo sapiens, UniProt P41968). Briefly: Displacement of [125I]NDP-alpha-MSH from human MC3R expressed in CHO cells. Format: cell-based. On the technique in general: Displacement assays read how much labelled ligand stays bound in the presence of the test substance.
T3 sequence (P41968 whole entry): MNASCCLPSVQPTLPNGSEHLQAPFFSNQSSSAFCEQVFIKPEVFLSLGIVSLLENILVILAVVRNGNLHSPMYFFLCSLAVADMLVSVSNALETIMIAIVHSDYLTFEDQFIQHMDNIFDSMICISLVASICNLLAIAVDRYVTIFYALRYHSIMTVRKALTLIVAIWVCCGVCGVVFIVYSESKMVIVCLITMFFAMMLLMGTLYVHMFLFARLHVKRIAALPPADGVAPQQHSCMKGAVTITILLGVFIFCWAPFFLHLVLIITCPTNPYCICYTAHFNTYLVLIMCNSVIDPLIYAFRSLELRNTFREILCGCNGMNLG
Data set [11] can be described thus: Bioavailability in Sprague-Dawley rat at 1 mg/kg, iv and 4 mg/kg, po. Conditions: in vivo. Format: ADME, organism-based.
For data set [12], the system named is Rattus norvegicus. Kind of data set: Erectogenic activity in rat assessed as spontaneous erections at 1 mg/kg, iv for 30 mins. Type of data set: functional.
Data set [13] has as its system Rattus norvegicus. Briefly: Antiobesity activity in po dosed DIO rat assessed as decrease in body weight after 14 days.
Data set [14] deals with Rattus norvegicus. Kind of data set: Erectogenic activity in iv dosed rat assessed as spontaneous erections measured for 30 mins. Type of data set: functional, organism-based.
Data set [15] in a line: Volume of distribution at steady state in rhesus monkey at 0.5 mg/kg, iv and 2 mg/kg, po. Format: ADME, organism-based, Macaca mulatta. Conditions: in vivo, read-out: Vdss.
For data set [16], the target named is T3, Melanocortin receptor 3. Kind of data set: Agonist activity at human MC3R expressed in CHO cells assessed as stimulation of intracellular cAMP accumulation. Type of data set: functional, cell-based.
Data set [17] relates to Rattus norvegicus. Kind of data set: Erectogenic activity in rat assessed as spontaneous erections at 0.01 mg/kg, iv for 30 mins. Type of data set: functional.
The target in data set [18] is Melanocortin receptor 4 (Rattus norvegicus) (UniProt P70596). Kind of data set: Agonist activity at rat MC4R expressed in CHO cells assessed as stimulation of intracellular cAMP accumulation at 10 uM relative to alpha-MSH. Format: functional, cell-based.
Chain of Melanocortin receptor 4 (Rattus norvegicus) (P70596 whole entry): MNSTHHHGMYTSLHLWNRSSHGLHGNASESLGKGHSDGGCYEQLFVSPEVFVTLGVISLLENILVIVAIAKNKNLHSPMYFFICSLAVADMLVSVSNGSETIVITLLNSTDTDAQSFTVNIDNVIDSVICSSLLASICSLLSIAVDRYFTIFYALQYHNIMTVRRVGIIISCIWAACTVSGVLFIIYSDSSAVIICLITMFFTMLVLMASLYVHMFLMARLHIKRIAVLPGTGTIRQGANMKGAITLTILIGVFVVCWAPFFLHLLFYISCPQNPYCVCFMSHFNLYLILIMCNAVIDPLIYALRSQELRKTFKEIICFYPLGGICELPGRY
Data set [19] has as its target T4, Melanocortin receptor 5 (Homo sapiens, UniProt P33032). Kind of data set: Agonist activity at human MC5R expressed in CHO cells assessed as stimulation of intracellular cAMP accumulation at 10 uM relative to alpha-MSH. Format: functional, cell-based.
Data set [20] deals with Rattus norvegicus. Kind of data set: Erectogenic activity in rat assessed as spontaneous erections at 3 mg/kg, iv for 30 mins. Format: functional.
Data set [21] can be described thus: Volume of distribution at steady state in Beagle dog at 0.5 mg/kg, iv and 1.0 mg/kg, po. Format: ADME, organism-based, Canis lupus familiaris. Conditions: in vivo, read-out: Vdss.
A short description of data set [22]: Volume of distribution at steady state in Sprague-Dawley rat at 1 mg/kg, iv and 4 mg/kg, po. Type of data set: ADME, organism-based. Conditions: in vivo, read-out: Vdss.
Data set [23] has as its system Rattus norvegicus. Kind of data set: Antiobesity activity in po dosed DIO rat assessed as decrease in food intake after 14 days.
Data set [24] can be described thus: Bioavailability in Beagle dog at 0.5 mg/kg, iv and 1.0 mg/kg, po. Format: ADME, organism-based, Canis lupus familiaris. Particulars: in vivo.
For data set [25], the target named is Melanocortin receptor 3 (Rattus norvegicus) (UniProt P32244). Briefly: Agonist activity at rat MC3R expressed in CHO cells assessed as stimulation of intracellular cAMP accumulation at 10 uM relative to alpha-MSH. Type of data set: functional, cell-based.
Chain of Melanocortin receptor 3 (Rattus norvegicus) (P32244 whole entry): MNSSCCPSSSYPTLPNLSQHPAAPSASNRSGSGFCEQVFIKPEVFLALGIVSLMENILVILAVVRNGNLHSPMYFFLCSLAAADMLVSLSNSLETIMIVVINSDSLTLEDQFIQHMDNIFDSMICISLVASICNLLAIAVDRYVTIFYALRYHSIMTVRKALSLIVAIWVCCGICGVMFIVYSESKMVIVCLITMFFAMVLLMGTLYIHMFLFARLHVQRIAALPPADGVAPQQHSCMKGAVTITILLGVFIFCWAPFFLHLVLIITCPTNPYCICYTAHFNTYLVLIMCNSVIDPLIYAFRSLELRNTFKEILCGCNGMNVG
For data set [26], the target named is Melanocortin receptor 4 (Rattus norvegicus, UniProt P70596). Briefly: Agonist activity at rat MC4R expressed in CHO cells assessed as stimulation of intracellular cAMP accumulation. Format: functional, cell-based.
Chain of Melanocortin receptor 4 (Rattus norvegicus, UniProt P70596) (P70596 whole entry): as the sequence (P70596 whole entry) above
The target of data set [27] is Melanocortin receptor 4 (Mus musculus, UniProt P56450). Kind of data set: Agonist activity at mouse MC4R expressed in CHO cells assessed as stimulation of intracellular cAMP accumulation. Type of data set: functional, cell-based.
Chain of Melanocortin receptor 4 (Mus musculus, UniProt P56450) (P56450 whole entry): as the sequence (P70596 whole entry) above, with H21Y, S36P, T199S, A239T, P329S, G330S counted along it
The target in data set [28] is T4, Melanocortin receptor 5. Briefly: Displacement of [125I]NDP-alpha-MSH from human MC5R expressed in CHO cells. Type of data set: cell-based.
Data set [29] can be described thus: Half life in Beagle dog at 0.5 mg/kg, iv and 1.0 mg/kg, po. Conditions: in vivo. Type of data set: ADME, organism-based, Canis lupus familiaris.
Data set [30] concerns Rattus norvegicus. Kind of data set: Erectogenic activity in rat assessed as spontaneous erections at 0.1 mg/kg, iv for 30 mins. Type of data set: functional.
Data set [31] is described as follows: Clearance in rhesus monkey at 0.5 mg/kg, iv and 2 mg/kg, po. Format: ADME, organism-based, Macaca mulatta. Conditions: in vivo.
The nature of data set [32]: Bioavailability in rhesus monkey at 0.5 mg/kg, iv and 2 mg/kg, po. Type of data set: ADME, organism-based, Macaca mulatta. Conditions: in vivo.
Data set [33] is described as follows: Half life in Sprague-Dawley rat at 1 mg/kg, iv and 4 mg/kg, po. Type of data set: ADME, organism-based. Particulars: in vivo.
Data set [34] addresses T2, Melanocyte-stimulating hormone receptor. Kind of data set: Displacement of [125I]NDP-alpha-MSH from human MC1R expressed in CHO cells. Type of data set: cell-based.
Target sequence in this assay (Q01726 whole entry): as the sequence (Q01726 whole entry, looked up) above
The target in data set [35] is T3, Melanocortin receptor 3. Kind of data set: Agonist activity at human MC3R expressed in CHO cells assessed as stimulation of intracellular cAMP accumulation at 10 uM relative to alpha-MSH. Format: functional, cell-based.
Data set [36] addresses Melanocortin receptor 3 (Rattus norvegicus, UniProt P32244). Briefly: Agonist activity at rat MC3R expressed in CHO cells assessed as stimulation of intracellular cAMP accumulation. Type of data set: functional, cell-based.
The nature of data set [37]: Clearance in Sprague-Dawley rat at 1 mg/kg, iv and 4 mg/kg, po. Type of data set: ADME, organism-based. Conditions: in vivo.
Data set [38] deals with Melanocortin receptor 4 (Mus musculus) (UniProt P56450). Kind of data set: Agonist activity at mouse MC4R expressed in CHO cells assessed as stimulation of intracellular cAMP accumulation at 10 uM relative to alpha-MSH. Type of data set: functional, cell-based.
Chain of Melanocortin receptor 4 (Mus musculus) (P56450 whole entry): as the sequence (P70596 whole entry) above, with H21Y, S36P, T199S, A239T, P329S, G330S counted along it

T1 sequence (P32245 whole entry): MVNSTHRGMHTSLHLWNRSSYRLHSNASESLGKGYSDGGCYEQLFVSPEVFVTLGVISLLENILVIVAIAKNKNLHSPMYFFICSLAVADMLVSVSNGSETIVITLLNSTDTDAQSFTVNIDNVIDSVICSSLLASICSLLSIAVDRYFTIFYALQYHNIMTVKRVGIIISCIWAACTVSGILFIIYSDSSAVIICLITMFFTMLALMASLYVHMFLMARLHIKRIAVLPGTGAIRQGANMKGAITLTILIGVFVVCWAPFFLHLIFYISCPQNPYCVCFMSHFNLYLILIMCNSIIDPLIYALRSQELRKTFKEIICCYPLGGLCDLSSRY
T4 sequence (P33032 whole entry): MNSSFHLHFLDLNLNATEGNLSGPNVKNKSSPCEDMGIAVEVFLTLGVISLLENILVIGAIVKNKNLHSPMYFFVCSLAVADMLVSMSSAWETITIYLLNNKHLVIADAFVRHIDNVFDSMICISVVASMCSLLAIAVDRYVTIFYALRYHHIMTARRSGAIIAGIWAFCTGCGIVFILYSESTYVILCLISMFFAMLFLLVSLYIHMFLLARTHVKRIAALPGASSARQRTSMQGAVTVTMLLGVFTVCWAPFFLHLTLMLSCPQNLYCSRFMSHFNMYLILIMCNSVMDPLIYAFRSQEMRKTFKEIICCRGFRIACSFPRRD
Chain of Melanocortin receptor 3 (Rattus norvegicus, UniProt P32244) (P32244 whole entry): as the sequence (P32244 whole entry) above

For orientation: pIC50 means the IC50 on a negative log10 scale, so that one unit is a factor of ten. In general, Emax refers to the maximal effect, on the per cent scale that the assay sets. As usually defined, the pEC50 is the EC50 on a negative log10 scale, so that one unit is a factor of ten. The compound `CC(=O)NC(C)(C)[C@@H]1CC2(CCN(C(=O)[C@H]3CN(C(C)(C)C)C[C@@H]3c3ccc(F)cc3F)CC2)c2cc(Cl)c(C)cc21` had a pIC50 at Melanocortin receptor 4 [1] of 7.05. Also, the maximal response (Emax) in data set [2] was 15%; at Melanocortin receptor 4 [4] it was 107%. Further, on Melanocortin receptor 4 [3], the negative-log EC50 (pEC50) was 7.03.
As to `CC(=O)NC(C)(C)[C@H]1CC2(CCN(C(=O)[C@@H]3CN(C(C)(C)C)C[C@H]3c3ccc(F)cc3F)CC2)c2cc(Cl)c(C)cc21`, the negative logarithm of the IC50 (pIC50) on Melanocortin receptor 4 [1] was 8.37. For the same compound, the maximum response (Emax) in data set [2] stood at 39%; at Melanocortin receptor 4 [4] it was 97%. For the same compound, the pEC50 at Melanocortin receptor 4 [3] was 8.49; in [5], 6.64.
By half-life is commonly meant the time in which the quantity being followed falls by half. Usually bioavailability stands for dose-corrected exposure relative to a reference, in per cent. Consider `CC(=O)NC(C)(C)[C@@H]1CC2(CCN(C(=O)[C@@H]3CN(C(C)(C)C)C[C@H]3c3ccc(F)cc3F)CC2)c2cc(Cl)c(C)cc21`, for which the half-life in [6] was 3.9 h; in [29], 11.2 h; in [33], 4.5 h. The pIC50 on Melanocortin receptor 4 [1] is 7.89; on Melanocortin receptor 3 [10], 6.05; at Melanocortin receptor 5 [28], 7.08; in data set [34] it was 5.71. The Activity is 83% with Rattus norvegicus [7]; 75% in the data set on Rattus norvegicus [9]; 88% in the data set on Rattus norvegicus [12]; “Dose-dependent effect” in the data set with Rattus norvegicus [13]; “Dose-dependent effect” with Rattus norvegicus [14]; 92% with Rattus norvegicus [17]. The Activity was 126% in [18]; 9% at Melanocortin receptor 5 [19]; 75% in the data set on Rattus norvegicus [20]; “Dose-dependent effect” in the data set on Rattus norvegicus [23]; 97% in data set [25]; 100% with Rattus norvegicus [30]. The Activity at Melanocortin receptor 3 [35] was found to be 71%; in [38] it was 197%. Further, the values for the clearance in data set [8], in data set [31] and in [37] were 3.5 mL/min/kg, 9.6 mL/min/kg and 12 mL/min/kg, respectively. The values for the maximal effect (Emax) (in data set [2]; at Melanocortin receptor 4 [4]) were 18% and 105%, respectively. Moreover, the bioavailability in data set [11] came to 33%; in [24], 71%; in [32] it was 53%. For the same compound, the Vd in [15] worked out at 3.5 L/kg; in [21], 3.5 L/kg; in [22], 5.1 L/kg. Besides, the pEC50 at Melanocortin receptor 3 [16] was 6.45; on Melanocortin receptor 4 [3], 8.31; at Melanocortin receptor 4 [26], 8.70; at Melanocortin receptor 4 [27] it was 7.66; in data set [5], 5.99; at Melanocortin receptor 3 [36], 6.00.
At Melanocortin receptor 4 [1], `CC(=O)NC(C)(C)[C@H]1CC2(CCN(C(=O)[C@H]3CN(C(C)(C)C)C[C@@H]3c3ccc(F)cc3F)CC2)c2cc(Cl)c(C)cc21` showed a pIC50 of 7.40. In addition, the Emax stood at 41% in data set [2] and 111% at Melanocortin receptor 4 [4]. Further, the pEC50 at Melanocortin receptor 4 [3] is 7.43; in data set [5] it was 6.21.
